Experimental findings from BindingDB's records for doi:10.1016/0006-8993(87)90040-0 (St, Marianna University School of Medicine, 1987) are described below.

The target of this assay is D(2) dopamine receptor (Rattus norvegicus, UniProt P61169).
Sequence of D(2) dopamine receptor (P61169 whole entry): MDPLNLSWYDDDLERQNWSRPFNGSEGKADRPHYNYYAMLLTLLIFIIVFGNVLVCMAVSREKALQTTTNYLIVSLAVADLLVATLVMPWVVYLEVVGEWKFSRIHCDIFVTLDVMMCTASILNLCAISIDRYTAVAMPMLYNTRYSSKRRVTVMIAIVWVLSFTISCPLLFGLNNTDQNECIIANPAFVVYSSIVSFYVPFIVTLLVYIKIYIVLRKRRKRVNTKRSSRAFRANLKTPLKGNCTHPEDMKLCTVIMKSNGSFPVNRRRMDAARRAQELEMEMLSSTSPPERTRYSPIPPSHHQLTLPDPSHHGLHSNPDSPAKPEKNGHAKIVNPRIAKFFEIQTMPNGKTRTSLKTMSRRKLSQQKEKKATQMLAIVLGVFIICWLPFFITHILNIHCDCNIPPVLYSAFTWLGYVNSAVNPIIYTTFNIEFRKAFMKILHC
Take `CCN(CC)CCNC(=O)c1cc(S(C)(=O)=O)ccc1OC` [CAS_51012-32-9]: the Ki – broadly, the dissociation constant of the complex between target and ligand, obtained from inhibition or displacement – stood at 0.077 µM. Then `COc1ccc2c(c1)N(C[C@@H](C)CN(C)C)c1ccccc1S2`, with 0.015 µM; and `COC(=O)[C@@H]1[C@H]2C[C@H]3c4[nH]c5ccccc5c4CCN3C[C@@H]2CC[C@@H]1O` [yohimbic acid methyl ester], with 0.158 µM.

Turning to `CCN1CCC[C@H]1CNC(=O)c1cc(S(=O)(=O)CC)ccc1OC` [Sultopride], the Ki worked out at 0.0024 µM. Consider `COc1cc2nc(N3CCN(C(=O)c4ccco4)CC3)nc(N)c2cc1OC` [[3H]-Minipress], for which the Ki was found to be 8.79 µM.
